Reference: publication PMC8000760, “Potential Effect of Pseudevernia furfuracea (L.) Zopf Extract and Metabolite Physodic Acid on Tumour Microenvironment Modulation in MCF-10A Cells” (Biomolecules, 2021)

Key:
[1] = test system: MCF-10A, BJ-5ta and HUVEC cells; experiment: MTS cell viability assay, range over the three cell lines; type: cell-based; settings: cell viability and cell proliferation tests
Protocol: Briefly, MCF-10A and BJ-5ta were seeded in 96-well culture plates, and after 24 h incubation, treated with various ranges of concentrations of tested compounds (10–100 μg/mL) for 72 h. At the same time, HUVECs were seeded in a gelatine-coated 96-well plate and treated with the same aliquots of indicated compounds in the presence or absence of VEGF (Vascular endothelial growth factor) (25 ng/mL) for 48 h. Cell viability was evaluated by measuring the absorbance at 490 nm using the automated CytationTM 3 Cell Imaging Multi-Mode Reader (Biotek, Winooski, VT, USA). Three independent experiments were performed at different intervals.

[2] = test system: chorioallantoic membrane (CAM) of fertilised quail eggs; experiment: Ex ovo chorioallantoic membrane (CAM) assay; type: in vivo, Coturnix coturnix japonica
Protocol: Fertilised quail eggs (Coturnix coturnix japonica; 20 specimens) were obtained from the certified farm (Mala Ida, Slovakia) and incubated horizontally in a forced draft constant humidity incubator at 38.2 ± 0.5 °C and 58% relative humidity. After 56 h, the eggs were sterilised by wiping the surface lightly with 70% ethanol and allowed to dry. An incision was made in the middle ventral part of the shell, using sterile scissors, and the embryos were deposited in six-well tissue culture dishes (Sigma-Aldrich), which were then returned to the humidified incubator for an additional 4 days, until the start of the experiments. At day 7 (96 h after day 3), a sterilised silicone ring (10 mm inner diameter) was laid on CAM surface for the deposition of testing solution. […] At least 10 eggs were used in every experimental group. The photographs of CAM blood vessels’ formation inside of rings were obtained using a stereomicroscope Olympus SZ61 (Tokyo, Japan) and digital camera PROMICRA 3.2 (Prague, Czech Republic). Subsequently, photographs were pre-processed using QuickPHOTO MICRO microscope software (Promicra; Prague, Czech Republic). Representative images were then analysed using Wimasis Image Analysis automatic software to quantify the angiogenesis.

[3] = test system: fibronectin in TGF-β-stimulated MCF-10A cells; experiment: Fibronectin expression, immunofluorescence; type: cell-based, human; settings: IC10, TGF-β-stimulated MCF-10A
Protocol: The MCF-10A and BJ-5ta cells were seeded and cultivated for 24 h in a complete medium. One day after seeding, 30 ng/mL of TGF-β was added and cultivated for 7 days (d). TGF-β was added to induce epithelial–mesenchymal transition in tested cell lines. Lichen extract P. furfuracea (L.) Zopf and its metabolite physodic acid were added at time 0 h and then incubated for 24, 48 and 72 h for various analyses, as described in Figure 1.
The MCF-10A cells at a density of 2 × 10^3/cm^2, plated on 22 mm^2 glass coverslips, were stimulated for 7 days with 30 ng/mL of TGF-β. […] After treatment, cells were washed with PBS, fixed with 4% paraformaldehyde (pH 7.2) for 10 min, permeabilised by 0.1% Triton X-100 (Sigma-Aldrich) for 10 min at RT and then washed three) times with PBS for 5 min. Glass coverslips were then incubated with Swine serum (1:30) for 30 min for blocking non-specific binding. Primary antibodies were diluted according to the manufacturer’s instructions (Table 2) and transferred to coverslips for 90 min. […] All coverslips were mounted in Vectashield (Cole-Parmer, Illinois, USA) and immunofluorescence pictures were taken with the same exposition settings by the Nikon Eclipse 90i fluorescence microscope (Nikon, Tokyo, Japan) equipped with filter cubes for FITC and DAPI. Images were then analysed using ImageJ (NIH) software.

[4] = VEGF-stimulated (25 ng/mL), IC10, 72 h, compared to VEGF alone

SMILES: CCCCCC(=O)Cc1cc(O)cc2c1C(=O)Oc1cc(O)c(C(=O)O)c(CCCCC)c1O2 [Phy, physodic acid]
- degree of cytotoxicity on all tested cells [1]: did not show a high degree of cytotoxicity
- total branching points [2, 4]: significant decrease
- total vascular network length [2, 4]: significant decrease
- vascular density [2, 4]: significant decrease
- total branching points ([2]; absence of VEGF): not significantly affected
- vessel density ([2]; non-stimulated group (absence of VEGF)): significant change
- fibronectin expression, immunofluorescence [3]: downregulation
